Measured values published in ChEMBL document CHEMBL1201862, “PubChem BioAssay data set” (2004).
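Cultured in 96-well plates, cells were exposed to test compound for 48 hours across five concentrations. Here, GI50 denotes the concentration required for 50% inhibition of growth.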 Activity calls are given as the source filed them. Rule as the data show it: active = GI50 up to about 1.1 µM and inactive = higher.

Key:
Assay in all cases: NCI-60 cell line screen, 48 h
NCI-H522 = system: NCI-H522
HCT-116 = system: HCT-116
PC-3 = system: PC-3
NCI-H460 = system: NCI-H460
UACC-62 = system: UACC-62
SN12C = system: SN12C
U-251 = system: U-251
TK-10 = system: TK-10
RPMI-8226 = system: RPMI-8226
NCI-H226 = system: NCI-H226
UACC-257 = system: UACC-257
SK-OV-3 = system: SK-OV-3
OVCAR-4 = system: OVCAR-4
SF-268 = system: SF-268
RXF 393 = system: RXF 393
A498 = system: A498
786-0 = system: 786-0
HCT-15 = system: HCT-15
COLO 205 = system: COLO 205
OVCAR-8 = system: OVCAR-8
Hs-578T = system: Hs-578T
EKVX = system: EKVX
MCF7 = system: MCF7
DU-145 = system: DU-145
SF-295 = system: SF-295
NCI-H23 = system: NCI-H23
SNB-75 = system: SNB-75
SK-MEL-5 = system: SK-MEL-5
HOP-92 = system: HOP-92
HOP-62 = system: HOP-62
A549 = system: A549
M14 = system: M14
BT-549 = system: BT-549
SR = system: SR
Malme-3M = system: Malme-3M
NCI/ADR-RES = system: NCI/ADR-RES
UO-31 = system: UO-31
ACHN = system: ACHN
CAKI-1 = system: CAKI-1
K562 = system: K562
HCC 2998 = system: HCC 2998
OVCAR-5 = system: OVCAR-5
SK-MEL-2 = system: SK-MEL-2
MDA-N = system: MDA-N
MDA-MB-435 = system: MDA-MB-435
MDA-MB-231 = system: MDA-MB-231
HL-60 = system: HL-60
IGROV-1 = system: IGROV-1
LOX IMVI = system: LOX IMVI
SW-620 = system: SW-620
HT-29 = system: HT-29
OVCAR-3 = system: OVCAR-3
SK-MEL-28 = system: SK-MEL-28
SNB-19 = system: SNB-19
SF-539 = system: SF-539
KM12 = system: KM12
CCRF-CEM = system: CCRF-CEM
T47D = system: T47D
MOLT-4 = system: MOLT-4

## CC1=C(/C=C/C(=O)O)C(C)(C)CCC1
NCI-H522
  GI50: > 100 µM (inactive)
HCT-116
  GI50: > 100 µM (inactive)
PC-3
  GI50: > 100 µM (inactive)
NCI-H460
  GI50: > 100 µM (inactive)
UACC-62
  GI50: > 100 µM (inactive)
SN12C
  GI50: > 100 µM (inactive)
U-251
  GI50: > 100 µM (inactive)
TK-10
  GI50: > 100 µM (inactive)
RPMI-8226
  GI50: > 100 µM (inactive)
NCI-H226
  GI50: > 100 µM (inactive)
UACC-257
  GI50: > 100 µM (inactive)
SK-OV-3
  GI50: > 100 µM (inactive)
OVCAR-4
  GI50: > 100 µM (inactive)
SF-268
  GI50: > 100 µM (inactive)
RXF 393
  GI50: > 100 µM (inactive)
A498
  GI50: > 100 µM (inactive)
786-0
  GI50: > 100 µM (inactive)
HCT-15
  GI50: > 100 µM
COLO 205
  GI50: > 100 µM (inactive)
OVCAR-8
  GI50: > 100 µM (inactive)
Hs-578T
  GI50: > 100 µM (inactive)
EKVX
  GI50: > 100 µM (inactive)
MCF7
  GI50: > 100 µM (inactive)
DU-145
  GI50: > 100 µM (inactive)
SF-295
  GI50: > 100 µM (inactive)
NCI-H23
  GI50: > 100 µM (inactive)
SNB-75
  GI50: > 100 µM (inactive)
SK-MEL-5
  GI50: > 100 µM (inactive)
HOP-92
  GI50: > 100 µM (inactive)
HOP-62
  GI50: > 100 µM (inactive)
A549
  GI50: > 100 µM (inactive)
M14
  GI50: > 100 µM (inactive)
BT-549
  GI50: > 100 µM (inactive)
SR
  GI50: > 100 µM (inactive)
Malme-3M
  GI50: > 100 µM (inactive)
NCI/ADR-RES
  GI50: > 100 µM (inactive)
UO-31
  GI50: > 100 µM (inactive)
ACHN
  GI50: > 100 µM (inactive)
CAKI-1
  GI50: > 100 µM (inactive)
K562
  GI50: > 100 µM (inactive)
HCC 2998
  GI50: > 100 µM (inactive)
OVCAR-5
  GI50: > 100 µM (inactive)
SK-MEL-2
  GI50: > 100 µM (inactive)
MDA-N
  GI50: > 100 µM (inactive)
MDA-MB-435
  GI50: > 100 µM (inactive)
MDA-MB-231
  GI50: > 100 µM (inactive)
HL-60
  GI50: > 100 µM (inactive)
IGROV-1
  GI50: > 100 µM (inactive)
LOX IMVI
  GI50: > 100 µM (inactive)
SW-620
  GI50: > 100 µM (inactive)
HT-29
  GI50: > 100 µM (inactive)
OVCAR-3
  GI50: > 100 µM (inactive)
SK-MEL-28
  GI50: > 100 µM (inactive)
SNB-19
  GI50: > 100 µM (inactive)
SF-539
  GI50: > 100 µM (inactive)

## Cc1ccc(C2CC(=O)CC(c3ccc(C)cc3)C23C(=O)NC(=O)NC3=O)cc1 (stereo not given)
KM12
  GI50: > 100 µM (inactive)
NCI-H522
  GI50: > 100 µM (inactive)
HCT-116
  GI50: > 100 µM (inactive)
PC-3
  GI50: > 100 µM (inactive)
NCI-H460
  GI50: > 100 µM (inactive)
UACC-62
  GI50: > 100 µM (inactive)
SN12C
  GI50: > 100 µM (inactive)
U-251
  GI50: > 100 µM (inactive)
TK-10
  GI50: > 100 µM (inactive)
RPMI-8226
  GI50: > 100 µM (inactive)
NCI-H226
  GI50: > 100 µM (inactive)
UACC-257
  GI50: > 100 µM (inactive)
OVCAR-4
  GI50: 71.1 µM (inactive)
SF-268
  GI50: > 100 µM (inactive)
RXF 393
  GI50: > 100 µM (inactive)
786-0
  GI50: > 100 µM (inactive)
HCT-15
  GI50: > 100 µM
COLO 205
  GI50: > 100 µM (inactive)
OVCAR-8
  GI50: > 100 µM (inactive)
EKVX
  GI50: > 100 µM (inactive)
CCRF-CEM
  GI50: > 100 µM (inactive)
MCF7
  GI50: > 100 µM (inactive)
DU-145
  GI50: > 100 µM (inactive)
SF-295
  GI50: > 100 µM (inactive)
NCI-H23
  GI50: > 100 µM (inactive)
SNB-75
  GI50: > 100 µM (inactive)
SK-MEL-5
  GI50: > 100 µM (inactive)
HOP-92
  GI50: > 100 µM (inactive)
HOP-62
  GI50: 28.9 µM (inactive)
M14
  GI50: > 100 µM (inactive)
BT-549
  GI50: > 100 µM (inactive)
SR
  GI50: 60.1 µM (inactive)
T47D
  GI50: > 100 µM (inactive)
Malme-3M
  GI50: > 100 µM (inactive)
NCI/ADR-RES
  GI50: > 100 µM (inactive)
UO-31
  GI50: > 100 µM (inactive)
ACHN
  GI50: > 100 µM (inactive)
CAKI-1
  GI50: > 100 µM (inactive)
K562
  GI50: 40.4 µM (inactive)
HCC 2998
  GI50: > 100 µM (inactive)
OVCAR-5
  GI50: > 100 µM (inactive)
MOLT-4
  GI50: 45 µM (inactive)
SK-MEL-2
  GI50: > 100 µM (inactive)
MDA-N
  GI50: > 100 µM (inactive)
MDA-MB-435
  GI50: > 100 µM (inactive)
MDA-MB-231
  GI50: > 100 µM (inactive)
HL-60
  GI50: > 10 µM (inactive)
IGROV-1
  GI50: > 100 µM (inactive)
LOX IMVI
  GI50: > 100 µM (inactive)
SW-620
  GI50: > 100 µM (inactive)
HT-29
  GI50: > 100 µM (inactive)
OVCAR-3
  GI50: > 100 µM (inactive)
SK-MEL-28
  GI50: > 100 µM (inactive)
SNB-19
  GI50: > 100 µM (inactive)
SF-539
  GI50: > 100 µM (inactive)
